Data set [1] concerns the target 3CL-Pro (Severe acute respiratory syndrome coronavirus 2, UniProt P0DTD1). The data set can be described thus: 3CL-Pro kinetics inhibition assay in the presence of 0.05% Tween-20. The class given is biochemical, SARS-CoV-2. To be noted: 0.05% Tween-20 versus literature IC50.
Data set [2] is classed as physicochemical. To be noted: for CAC (critical aggregation concentration) / Colloid radius ±SD: DLS; for CAC (critical aggregation concentration): 50 mM KPi pH 7.0, 1% DMSO.
Data set [3] concerns the target T1, MDH (Sus scrofa, UniProt P00346).
T1 sequence (P00346 25-338): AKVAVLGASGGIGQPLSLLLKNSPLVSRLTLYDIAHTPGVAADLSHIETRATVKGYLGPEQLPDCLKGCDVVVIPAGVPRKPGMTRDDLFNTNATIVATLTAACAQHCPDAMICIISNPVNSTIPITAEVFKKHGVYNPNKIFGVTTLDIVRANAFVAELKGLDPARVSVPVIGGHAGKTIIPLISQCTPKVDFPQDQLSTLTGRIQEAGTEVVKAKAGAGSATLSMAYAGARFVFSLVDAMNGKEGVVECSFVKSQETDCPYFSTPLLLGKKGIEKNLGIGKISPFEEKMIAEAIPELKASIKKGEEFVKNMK
The data set can be described thus: Colloid centrifugation followed by MDH inhibition of supernatant. The class given is biochemical, porcine. The following applies: 14,000 rpm, 1 h, 4 °C; supernatant tested.

In data set [4] the target is T2, MDH (malate dehydrogenase, from porcine heart) (Sus scrofa, UniProt P00346).
T2 sequence (P00346 25-338): T1 sequence (P00346 25-338)
As to the kind of experiment: MDH inhibition counter screen with or without 0.01% Triton X-100. The class given is biochemical. The following applies: for Effect of 0.01% Triton X-100 detergent on MDH inhibition/activity: addition of 0.01% Triton X-100; for Hill slope of MDH inhibition: in the absence of detergent.

Data set [5] concerns the target AmpC β-lactamase (Escherichia coli, UniProt P00811). The data set can be described thus: AmpC β-lactamase counter screen with or without 0.01% Triton X-100. The class given is biochemical.

Read-outs that look alike come from different tables or passages of the source.

Chain of AmpC β-lactamase (P00811 20-377): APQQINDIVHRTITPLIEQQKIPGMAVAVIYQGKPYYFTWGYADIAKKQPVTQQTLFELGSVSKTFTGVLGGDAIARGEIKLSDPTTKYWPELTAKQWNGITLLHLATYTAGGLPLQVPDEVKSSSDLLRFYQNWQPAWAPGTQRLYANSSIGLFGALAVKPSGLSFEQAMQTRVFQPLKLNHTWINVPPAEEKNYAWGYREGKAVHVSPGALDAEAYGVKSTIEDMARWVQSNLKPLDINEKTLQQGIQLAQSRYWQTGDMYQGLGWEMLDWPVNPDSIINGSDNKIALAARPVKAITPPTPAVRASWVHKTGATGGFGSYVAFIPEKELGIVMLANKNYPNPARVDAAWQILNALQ

In the case of `O=C(O)c1ccc(N2C(=O)/C(=C\c3ccc(-c4ccc([N+](=O)[O-])cc4)o3)C=C2c2ccccc2)cc1` [4E1RCat], the “Reduction of 3CL-Pro potency in presence of detergent versus literature value” in data set [1] is given as “fivefold”. Also, in data set [2] (literature hits), the “CAC (critical aggregation concentration)” value stood at 6.6 µM and the “Colloid radius ±SD” value came out at 102 ± 8 nm.

As for `COc1ccc(-c2ccc3cc(C(=O)O)ccc3c2)cc1C12CC3CC(CC(C3)C1)C2` [Adapalene], the “Colloid radius ±SD” value in data set [2] (drugs from repurposing library) worked out at 422 ± 65 nm. Same read-out and setting: to `Cc1c(C)c2c(c(C)c1O)CCC(C)(CCCC(C)CCCC(C)CCCC(C)C)O2` (stereo not drawn) [Alpha-Tochopherol] belongs 466 ± 5.6 nm. On to `O=C1c2c(O)cccc2Cc2cccc(O)c21` [Anthralin], for which the “Colloid radius ±SD” value in data set [2] (literature hits) was found to be 1014 ± 53 nm. Same read-out and setting: to `O=C1CCc2ccc(OCCCCN3CCN(c4cccc(Cl)c4Cl)CC3)cc2N1` [Aripiprazole] belongs 222 ± 5. nm. For `Cc1c(-c2ccc(O)cc2)n(Cc2ccc(OCCN3CCCCCC3)cc2)c2ccc(O)cc12` [Bazedoxifene], in data set [2] (drugs from repurposing library), the “Colloid radius ±SD” value turned out to be 2822 ± 814 nm.

For the compound `c1ccc(-c2ccc(C(c3ccccc3)n3ccnc3)cc2)cc1` (stereo not drawn) [Bifonazole], the “Colloid radius ±SD” value in data set [2] (drugs from repurposing library) turned out to be 184 ± 80 nm. Same read-out and setting: under `CC(C)(C)[C@H]1CC[C@H](CC2=C(O)C(=O)c3ccccc3C2=O)CC1` [Buparvaquone] stands 186 ± 15 nm. For `C[C@@H](NCCCc1cccc(C(F)(F)F)c1)c1cccc2ccccc12` [Cinacalcet], in data set [2] (literature hits), the “Colloid radius ±SD” value is listed as 77 ± 4 nm.

Take `Oc1c(I)cc(Cl)c2cccnc12` [Clioquinol]: the “Colloid radius ±SD” value in data set [2] (literature hits) was determined as 1818 ± 177 nm. Still for that read-out and setting: to `Clc1ccccc1C(c1ccccc1)(c1ccccc1)n1ccnc1` [Clotrimazole] belongs 283 ± 15 nm. With `COc1c2ccc(-c3ccccc3)oc-2cc(=O)c1C` [Dracorhodin], in data set [2] (drugs from repurposing library), the “Colloid radius ±SD” value turned out to be 101 ± 22 nm. Take `Cc1cc(O)c2c(c1)C(=O)c1cc(O)cc(O)c1C2=O` [Emodin]: the “Colloid radius ±SD” value in data set [2] (literature hits) was 58 ± 17 nm. Regarding `Cc1cc(-c2ccc(/N=N/c3ccc4c(S(=O)(=O)[O-])cc(S(=O)(=O)[O-])c(N)c4c3O)c(C)c2)ccc1/N=N/c1ccc2c(S(=O)(=O)[O-])cc(S(=O)(=O)[O-])c(N)c2c1O.[Na+].[Na+].[Na+].[Na+]` [Evans Blue], in data set [3], the “MDH enzyme activity after centrifugation of compound” value is reported as “enzyme activity was restored after centrifugation”. Moreover, in data set [2], the “Particles by DLS” value is “did not show particles by DLS”. Regarding `Cc1cc2c(C(C)C)c(O)c(O)c(C=O)c2c(O)c1-c1c(C)cc2c(C(C)C)c(O)c(O)c(C=O)c2c1O` [Gossypol], the “Colloid radius ±SD” value in data set [2] (literature hits) is 70 ± 6 nm. On the same count and under the same terms, under `O=C1C=C2CC3(O)COc4c(ccc(O)c4O)C3=C2C=C1O` (stereo not drawn) [Hematein] stands 64 ± 1 nm. On the same count and under the same terms, under `Cc1cc(O)c2c(=O)c3c(O)cc(O)c4c5c(O)cc(O)c6c(=O)c7c(O)cc(C)c8c1c2c(c34)c(c78)c65` [Hypericin] stands 143 ± 6 nm. Consider `COC(=O)C1=C(C)NC(C)=C(C(=O)OC(C)(C)CN(C)CCC(c2ccccc2)c2ccccc2)C1c1cccc([N+](=O)[O-])c1` (stereo not drawn) [Lercanidipine], for which, in data set [4], the “Effect of 0.01% Triton X-100 detergent on MDH inhibition/activity” value is recorded as “MDH activity is restored” and the “Hill slope of MDH inhibition” value was 2.9. In addition, in data set [2] (literature hits), the “Colloid radius ±SD” value is on record as 853 ± 147 nm. Further, the “Increase in DLS scattering intensity (Cnts/sec) on particle formation” value in data set [2] (aqueous buffer) was determined as 10 fold. Turning to `COC(=O)C1=C(C)NC(C)=C(C(=O)OCCN2CCN(C(c3ccccc3)c3ccccc3)CC2)C1c1cccc([N+](=O)[O-])c1` (stereo not drawn) [Manidipine], the “Colloid radius ±SD” value in data set [2] (literature hits) is 929 ± 75 nm. On the same count and under the same terms, to `O=c1c(O)c(-c2cc(O)c(O)c(O)c2)oc2cc(O)cc(O)c12` [Myricetin] belongs 100 ± 4 nm. In the case of `CC(C)=CC[C@@H](O)C1=CC(=O)c2c(O)ccc(O)c2C1=O` [Shikonin], in data set [4], the “Hill slope of MDH inhibition” value was 1.3–1.4. The “Colloid radius ±SD” value in data set [2] (literature hits) turned out to be 169 ± 9 nm.

`Brc1c(Br)c(Br)c2[nH]nnc2c1Br` [TBB]: the “MDH enzyme activity after centrifugation of compound” value in data set [3] is “enzyme activity was restored after centrifugation”. In addition, the “Particles by DLS” value in data set [2] is “did not show particles by DLS”. For `C/C(=C\c1ccc(C(=O)O)cc1)c1ccc2c(c1)C(C)(C)CCC2(C)C` [TTNPB], the “Colloid radius ±SD” value in data set [2] (literature hits) stood at 72 ± 3 nm. For `O=C(O)c1cccc(CN2C(=O)/C(=C(\c3ccccc3)c3ccc(Cl)cc3)c3ccccc32)c1` [YLF-466D], in data set [2] (literature hits), the “Colloid radius ±SD” value came out at 40 ± 0.4 nm.

As for Hemin, the “Reduction of 3CL-Pro potency in presence of detergent versus literature value” in data set [1] was 2.6 fold. Further, in data set [5] (at 25 μM hemin), the “AmpC enzyme activity on addition of 0.01% (v/v) Triton X-100” value is “fully restored enzyme activity”. The IC50 in data set [5] (read-out: AmpC IC50, no detergent) stood at 23 µM. For the same compound, in data set [4], the “Hill slope of MDH inhibition” value was 1.3–1.4. Moreover, in data set [2] (literature hits), the “CAC (critical aggregation concentration)” value was determined as 13 µM and the “Colloid radius ±SD” value is 84 ± 0.9 nm. tannic acid: the “Effect of 0.01% Triton X-100 detergent on MDH inhibition/activity” value in data set [4] is given as “cannot be reversed by detergent”.

Values taken from paper PMC8665103 (Journal of medicinal chemistry, 2021).
